# Source: US7659270B2, “Hepatitis C virus inhibitors” (Bristol-Myers Squibb Company, priority 2006, dated 2010)
# Like-named read-outs stand apart in the source and are kept apart here.
# Tested on: HCV 1b-377-neo replicon cells
# Experiment: HCV replicon assay (HCV 1b-377-neo replicon cells)
# Assay type: cell-based, Hepatitis C virus genotype 1b
# Set-up: EC50 range against HCV 1b (Range): scale not given here
# In short: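 HCV genotype 1b (1b-377-neo) replicon cells, run as a validated replicon assay; parallel testing in replicon cells carrying the NS5A Y2065H resistance mutation.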
# [1] = Hepatitis C virus, read-out: EC50 range against HCV 1b (Range)
Structure (SMILES),EC50 [1] [nM],further results
"C[C@H](NC(=O)[C@@H](c1ccccc1)N(C)C)c1ncc(-c2ccc(-c3ccc(-c4cnc([C@@H]5CCCN5C(=O)[C@@H](c5ccccc5)N(C)C)[nH]4)cn3)cc2)[nH]1 [Example 152j-11, (2R)-2-(dimethylamino)-N-((1S)-1-(5-(4-(5-(2-((2S)-1-((2R)-2-(dimethylamino)-2-phenylacetyl)-2-pyrrolidinyl)-1H-imidazol-5-yl)-2-pyridinyl)phenyl)-1H-imidazol-2-yl)ethyl)-2-phenylacetamide]",0.01 to 0.999,
"CN(C)[C@@H](C(=O)N1CCC[C@H]1c1nc(-c2ccc(-c3ccc(-c4cn(C)c([C@@H]5CCCN5C(=O)[C@@H](c5ccccc5)N(C)C)n4)cc3)cc2)cn1C)c1ccccc1 (single isomer, unassigned) [Example 151 isomer 2]",,"EC50 (listed as 151 isomer 2, read-out: EC50 range against HCV 1b (Range)): 100 to 999 nM"
"O=C([C@@H](c1ccccc1)N1CCCCC1)N1CCC[C@H]1c1ncc(-c2ccc(-c3ncc(-c4cnc([C@@H]5CCCN5C(=O)[C@@H](c5ccccc5)N5CCCCC5)[nH]4)cn3)cc2)[nH]1 [Example 152j-5, 5-(2-((2S)-1-((2R)-2-phenyl-2-(1-piperidinyl)acetyl)-2-pyrrolidinyl)-1H-imidazol-5-yl)-2-(4-(2-((2S)-1-((2R)-2-phenyl-2-(1-piperidinyl)acetyl)-2-pyrrolidinyl)-1H-imidazol-4-yl)phenyl)pyrimidine]",0.01 to 0.999,
"COC(=O)N[C@@H](C(=O)N1CCC[C@H]1c1ncc(-c2ccc(-c3ncc(-c4cnc([C@@H]5CCCN5C(=O)[C@H](NC(=O)OC)c5ccccc5)[nH]4)cn3)cc2)[nH]1)c1ccccc1 [Example 152j-2, methyl ((1R)-2-((2S)-2-(5-(2-(4-(2-((2S)-1-((2R)-2-((methoxycarbonyl)a-mino)-2-phenylacetyl)-2-pyrrolidinyl)-1H-imidazol-5-yl)phenyl)-5-pyrimidinyl)-1H-imidazol-2-yl)-1-pyrrolidinyl)-2-oxo-1-phenylethyl)carba-mate]",0.01 to 0.999,
"COC(=O)N[C@H](C(=O)N1CCC[C@H]1c1nc(-c2cnc(-c3ccc(-c4cnc([C@@H]5CCCN5C(=O)[C@@H](NC(=O)OC)[C@@H](C)OC)[nH]4)c(F)c3)nc2)c[nH]1)[C@@H](C)OC [Example D70, methyl ((1S,2R)-1-(((2S)-2-(5-(2-fluoro-4-(5-(2-((2S)-1-(N-(methoxy-carbonyl)-O-methyl-L-threonyl)-2-pyrroli-dinyl)-1H-imida-zol-5-yl)-2-pyrimidi-nyl)phenyl)-1H-imida-zol-2-yl)-1-pyrroli-dinyl)carbo-nyl)-2-methoxy-propyl)carba-mate]",0.01 to 0.999,
"COC(=O)N[C@H](C(=O)N1CCC[C@H]1c1ncc(-c2ccc(-c3ccc(-c4cnc([C@@H]5CCCN5C(=O)[C@@H](NC(=O)OC)C(C)C)[nH]4)cc3C(=O)O)cc2)[nH]1)C(C)C [Example M114, 4,4′-bis(2-((2S)-1-(N-(methoxycarbonyl)-L-valyl)-2-pyrrolidinyl)-1H-imidazol-5-yl)-2-biphenylcarboxylic acid]",,EC50 range against HCV 1b (Range): >A
"COC(=O)N[C@@H](C(=O)N[C@@H](C)c1ncc(-c2cnc(-c3ccc(-c4cnc([C@@H]5CCCN5C(=O)[C@H](NC(=O)OC)c5ccccc5)[nH]4)cc3)nc2)[nH]1)c1ccccc1 [Example 152j-17, methyl ((1R)-2-((2S)-2-(5-(4-(5-(2-((1S)-1-(((2R)-2-((methoxycarbonyl)a-mino)-2-phenyl-acetyl)amino)eth-yl)-1H-imidazol-5-yl)-2-pyrimidinyl)phenyl)-1H-imidazol-2-yl)-1-pyrrolidinyl)-2-oxo-1-phenylethyl)carba-mate]",0.01 to 0.999,
"CN(C)[C@@H](C(=O)N1CCC[C@H]1c1ncc(-c2ccc(-c3ccc(-c4cnc([C@@H]5CCCN5C(=O)[C@@H](c5ccccc5)N(C)C)[nH]4)nc3)cc2)[nH]1)c1ccccc1 [Example 146, (1R)-2-((2S)-2-(5-(5-(4-(2-((2S)-1-((2R)-2-(dimethylamino)-2-phenylacetyl)-2-pyrrolidinyl)-1H-imidazol-5-yl)phenyl)-2-pyridinyl)-1H-imidazol-2-yl)-1-pyrrolidinyl)-N,N-dimethyl-2-oxo-1-phenylethanamine]",0.01 to 0.999,
"COC(=O)N[C@@H](C(=O)N1CCC[C@H]1c1ncc(-c2ccc(-c3ccc(-c4cnc([C@@H]5CCCN5C(=O)[C@H](NC(=O)OC)c5ccccc5)[nH]4)nc3)cc2)[nH]1)c1ccccc1 [Example 147, methyl((1R)-2-((2S)-2-(5-(5-(4-(2-((2S)-1-((2R)-2-((methoxycarbonyl)amino)-2-phenylacetyl)-2-pyrrolidinyl)-1H-imidazol-5-yl)phenyl)-2-pyridinyl)-1H-imidazol-2-yl)-1-pyrrolidinyl)-2-oxo-1-phenylethyl)carbamate]",0.01 to 0.999,
"COC(=O)N[C@H](C(=O)N1CCC[C@H]1c1ncc(-c2cnc(-c3ccc(-c4[nH]c([C@@H]5CCCN5C(=O)[C@@H](NC(=O)OC)C(C)C)nc4C(F)(F)F)cc3)nc2)[nH]1)C(C)C [Example J48, methyl ((1S)-1-(((2S)-2-(5-(2-(4-(2-((2S)-1-((2S)-2-((methoxy-carbonyl)amino)-3-methyl-butanoyl)-2-pyrrolidinyl)-4-(trifluoromethyl)-1H-imidazol-5-yl)phenyl)-5-pyrimidinyl)-1H-imidazol-2-yl)-1-pyrroli-dinyl)carbon-yl)-2-methylpro-pyl)carba-mate]",0.01 to 0.999,
"C[C@@H](c1ncc(-c2ccc(-c3ncc(-c4cnc([C@@H]5CCCN5C(=O)[C@@H](c5ccccc5)N5CCCCC5)[nH]4)cn3)cc2)[nH]1)N(C)C(=O)[C@@H](c1ccccc1)N1CCCCC1 [Example 152j-6, (2R)-N-methyl-2-phenyl-N-((1S)-1-(4-(4-(5-(2-((2S)-1-((2R)-2-phenyl-2-(1-piperidinyl)acetyl)-2-pyrrolidinyl)-1H-imidazol-5-yl)-2-pyrimidinyl)phenyl)-1H-imidazol-2-yl)ethyl)-2-(1-piperidinyl)acetamide]",0.01 to 0.999,
"COC(=O)N[C@@H](C(=O)N1CCC[C@H]1c1ncc(-c2ccc(-c3ccc(-c4cnc([C@@H]5CCCN5C(=O)[C@H](NC(=O)OC)c5ccccc5)[nH]4)nn3)nn2)[nH]1)c1ccccc1 [Example 153c-2, dimethyl (3,3′-bipyrida-zine-6,6′-diylbis(1H-imi-dazole-5,2-diyl(2S)-2,1-pyrrolidine-diyl((1R)-2-oxo-1-phenyl-2,1-ethane-diyl)))biscarba-mate]",1 to 99,
CN(C)[C@@H](C(=O)N1CCC[C@H]1c1ncc(-c2ccc(-c3ccc(-c4cnc([C@@H]5CCCN5C(=O)[C@@H](c5ccccc5)N(C)C)[nH]4)nn3)nn2)[nH]1)c1ccccc1 [Example 153c-1],1 to 99,
"COC(=O)N[C@@H](C(=O)N[C@@H](C)c1ncc(-c2ccc(-c3ncc(-c4cnc([C@@H]5CCCN5C(=O)[C@@H](c5ccccc5)N5CCCCC5)[nH]4)cn3)cc2)[nH]1)c1ccccc1 [Example 152l-2, methyl ((1R)-2-oxo-1-phen-yl-2-(((1S)-1-(4-(4-(5-(2-((2S)-1-((2R)-2-phenyl-2-(1-piperi-dinyl)acetyl)-2-pyrrolidinyl)-1H-imidazol-5-yl)-2-pyrimi-dinyl)phenyl)-1H-imidazol-2-yl)eth-yl)amino)ethyl)car-bamate]",0.01 to 0.999,
"COC(=O)N[C@@H](C(=O)N1CCC[C@H]1c1ncc(-c2ccc(-c3ncc(-c4cnc([C@@H]5CCCN5C(=O)Cc5cccnc5)[nH]4)cn3)cc2)[nH]1)c1ccccc1 [Example 152j-3, methyl ((1R)-2-oxo-1-phenyl-2-((2S)-2-(5-(4-(5-(2-((2S)-1-(3-pyridinylacetyl)-2-pyrrolidinyl)-1H-imidazol-5-yl)-2-pyrimidinyl)phenyl)-1H-imidazol-2-yl)-1-pyrrolidinyl)ethyl)car-bamate]",0.01 to 0.999,
"COC(=O)N[C@@H](C)C(=O)N1CCC[C@H]1c1nc(-c2cnc(-c3ccc(-c4cnc([C@@H]5CCCN5C(=O)[C@H](C)NC(=O)OC)[nH]4)c(F)c3)nc2)c[nH]1 [Example D67, methyl ((1S)-2-((2S)-2-(5-(2-flouro-4-(5-(2-((2S)-1-(N-(methoxy-carbonyl)-L-alanyl)-2-pyrroli-dinyl)-1H-imida-zol-5-yl)-2-pyrimi-dinyl)phenyl)-1H-imida-zol-2-yl)-1-pyrrolidinyl)-1-methyl-2-oxoeth-yl)carbamate]",0.01 to 0.999,
"Cc1cc(-c2cnc([C@@H]3CCCN3C(=O)[C@@H](c3ccccc3)N(C)C)[nH]2)ccc1-c1ccc(-c2cnc([C@@H]3CCCN3C(=O)[C@@H](c3ccccc3)N(C)C)[nH]2)cn1 [Example 136, (1R)-2-((2S)-2-(5-(6-(4-(2-((2S)-1-((2R)-2-(dimethylamino)-2-phenylacetyl)-2-pyrrolidinyl)-1H-imidazol-5-yl)-2-methylphenyl)-3-pyridinyl)-1H-imidazol-2-yl)-1-pyrrolidinyl)-N,N-dimethyl-2-oxo-1-phenylethanamine]",0.01 to 0.999,
"CO[C@@H](C(=O)N1CCC[C@H]1c1ncc(-c2ccc(-c3ccc(-c4cnc([C@@H]5CCCN5C(=O)[C@H](OC)c5ccccc5)[nH]4)cn3)cc2)[nH]1)c1ccccc1 [Example 135, 5-(2-((2S)-1-((2R)-2-methoxy-2-phenylacetyl)-2-pyrrolidinyl)-1H-imidazol-5-yl)-2-(4-(2-((2S)-1-((2R)-2-methoxy-2-phenylacetyl)-2-pyrrolidinyl)-1H-imidazol-5-yl)phenyl)pyridine]",0.01 to 0.999,
"COC(=O)N[C@@H](C(=O)N1CCC[C@H]1c1ncc(-c2ccc(-c3ccc(-c4cnc([C@@H]5CCCN5C(=O)[C@@H](c5ccccc5)N(C)C)[nH]4)cc3C)cc2)[nH]1)c1ccccc1 [Example 126, methyl ((1R)-2-((2S)-2-(5-(4′-(2-((2S)-1-((2R)-2-(dimethylamino)-2-phenylacetyl)-2-pyrolidinyl)-1H-imidazol-5-yl)-2′-methyl-4-biphenylyl)-1H-imidazol-2-yl)-1-pyrrolidinyl)-2-oxo-1-phenylethyl)carbamate]",,EC50 (read-out: EC50 range against HCV 1b (Range)): 0.01 to 0.999 nM
